Assay results as given in US20070213359A1 (ACADIA Pharmaceuticals Inc., priority 2005, published 2007).
Where two headings read alike, the source gives them in different places.

Key:
[1] = target: T1, GHSR1a receptor (Homo sapiens, UniProt Q92847); experiment: 125I-Ghrelin binding assay; conditions: displacement of 125I-ghrelin (0.053 nM), membranes of HEK293 cells transfected with GHSR1a, Cheng-Prussoff, '—' not defined
T1 construct: expressed in transfected cells; host or cells: HEK293 (membranes)
T1 sequence (Q92847 whole entry): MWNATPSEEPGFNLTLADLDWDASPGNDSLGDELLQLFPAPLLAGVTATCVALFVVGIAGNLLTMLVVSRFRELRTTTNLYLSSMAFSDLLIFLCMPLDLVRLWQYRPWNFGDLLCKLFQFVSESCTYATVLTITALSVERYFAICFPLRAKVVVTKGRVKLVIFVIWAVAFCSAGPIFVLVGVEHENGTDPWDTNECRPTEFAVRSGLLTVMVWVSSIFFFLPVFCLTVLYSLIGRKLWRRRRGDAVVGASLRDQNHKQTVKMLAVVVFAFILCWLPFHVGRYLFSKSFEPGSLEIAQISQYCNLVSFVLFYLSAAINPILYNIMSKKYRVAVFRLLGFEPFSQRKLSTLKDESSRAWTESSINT

[2] = target: Ghrelin receptor (Homo sapiens, UniProt Q92847); experiment: Receptor Selection and Amplification Technology (R-SAT) assay; format: cell-based; design: expressed in transfected cells; host or cells: NIH3T3; conditions: for IC50: '—' not defined (nd used separately), read-out: RSAT pIC50 (converted); for Emax: read-out: RSAT Eff(%)
Sequence of Ghrelin receptor (Q92847 whole entry): as above

[3] = read-out: Binding pKi (converted)
[4] = negative logarithm of ligand concentration causing 50% inhibition of constitutive receptor response, transfected NIH3T3 cells
[5] = percent inhibition at saturating ligand, normalized to reference ligand Substance P analog = 100%

SMILES	Ki [1, 3]	IC50 [2, 4]	Emax [2, 5]	IC50 ([2]; […])	Emax [2]	Ki ([1]; Binding pKi)	RSAT Eff(%) [2, 5]
CC(=O)c1cn(CCCN2CCC(CCC(C)C)CC2)c2ccccc12	3980 nM	398 nM	73%				
COc1cccc2c(C#N)cn(CCCN3CCCN(Cc4ccccc4Cl)CC3)c12	12.6 nM	2.51 nM	137%				
COc1cccc2c(C(=O)Cc3ccccc3)cn(CCCN3CCCN(Cc4ccc(F)cc4)CC3)c12	7.94 nM			0.398 nM	87%		
CC(=O)c1cn(CCCN2C3CCC2CC(CC(=O)c2ccccc2)C3)c2c(Br)cccc12 (stereo not drawn)				7.94 nM	111%	100 nM	
COc1cccc2c(C(=O)NCc3cccc(Cl)c3)cn(CCCN3CCCN(CCc4ccccc4)CC3)c12				20 nM	125%	158 nM	
COc1cccc2c(C(=O)NCC(C)C)cn(CCCN3C4CCC3CC(Oc3ccc(Cl)cc3)C4)c12 (stereo not drawn)	100 nM	6.31 nM					107%
COc1cccc2c(C(C)=O)cn(CCCN3CCN(c4c(C)cccc4C)CC3)c12	1000 nM	6.31 nM	107%				
COc1cccc2c(C(=O)c3ccccc3)cn(CCCN3CCN(Oc4cccc(Cl)c4)CC3)c12	7.94 nM			6.31 nM	79%		
CC(=O)c1cn(CCCN2CCCN(Cc3ccccc3Cl)CC2)c2c(C#N)cccc12	63.1 nM	6.31 nM	98%				
COc1cccc2c(C(C)=O)cn(CCCN3CCC(Oc4ccccc4Cl)CC3)c12	794 nM	15.8 nM					98%
COc1ccccc1C1CCN(CCCn2cc(C(=O)NCC(C)C)c3cccc(OC)c32)CC1	126 nM	25.1 nM			108%		
COc1cccc2c(C(C)=O)cn(CCCN3CCCN(Cc4ccccc4Cl)CC3)c12	10 nM	0.251 nM					128%
COc1cccc2c(C(=O)NCc3cccc(C)c3)cn(CCCN3CCCN(CCc4ccccc4)CC3)c12				12.6 nM	110%	15.8 nM	
COc1cccc2c(C(C)=O)cn(CCCN3CCN(c4ccc(F)cc4)CC3)c12	501 nM	15.8 nM	95%				
COc1cccc2c(C(C)=O)cn(CCCN3CCC(Oc4ccc(Cl)cc4)CC3)c12 [drawing 276]	200 nM			5.01 nM	144%		
CC(=O)c1cn(CCCN2C3CCC2CC(Oc2ccc(Cl)cc2)C3)c2c(C)cccc12 (stereo not drawn)	126 nM	5.01 nM	99%				
COc1cccc2c(C(C)=O)cn(CCCN3CCN(c4ccc(C(F)(F)F)cc4[N+](=O)[O-])CC3)c12	631 nM	39.8 nM	94%				
CC(=O)c1cn(CCCN2C3CCC2CC(OCC2CC2)C3)c2ccccc12 (stereo not drawn)	15800 nM	1260 nM	89%				
CC(=O)c1c(C)n(CCCN2C3CCC2CC(CCc2ccc(Cl)cc2)C3)c2c(Br)cccc12 (stereo not drawn)	316 nM	12.6 nM	69%				
Cc1cccc(CNC(=O)c2cn(CCCN3C4CCC3CC(CCc3ccccc3)C4)c3ccccc23)c1 (stereo not drawn)				316 nM	108%	631 nM	
COc1cccc2c(C(=O)Cc3ccccc3)cn(CCCN3C4CCC3CC(CC(=O)c3ccc(Cl)cc3)C4)c12 (stereo not drawn)	31.6 nM			12.6 nM	167%		

SMILES	Ki [1, 3]	IC50 [2, 4]	Emax [2, 5]	IC50 ([2]; […])	Emax [2]	Ki ([1]; Binding pKi)	RSAT Eff(%) [2, 5]
CCCCC(=O)c1cn(CCCN2CCC(Oc3ccc(Cl)cc3)CC2)c2ccc(OC)cc12	251 nM	126 nM			111%		
CC(=O)c1cn(CCCN2CCC(Oc3ccccc3Cl)CC2)c2c(Br)cccc12	126 nM	12.6 nM	96%				
CCCCC1CCN(CCCn2cc(C(=O)NCC(C)C)c3cccc(OC)c32)CC1	200 nM			7.94 nM	93%		
COc1cccc2c(C(=O)NCc3cccc(Cl)c3)cn(CCCN3CCN(CCOc4ccc(Cl)cc4)CC3)c12				251 nM	104%	15.8 nM	
CC(=O)c1cn(CCCN2CCCC(Cc3ccccc3Cl)C2)c2c(C#N)cccc12 (stereo not drawn)	794 nM		22%				
COc1cccc2c(C(=O)NCC(C)C)cn(CCCN3CCC(CCOc4ccc(Cl)cc4)CC3)c12					45%	158 nM	
CCCCCCC1CCN(CCCn2cc(C(C)=O)c3ccccc32)CC1	6310 nM	200 nM	94%				
CC(=O)c1cn(CCCN2CCC(c3nc4ccccc4s3)CC2)c2c(Cl)cccc12				5.01 nM	117%	398 nM	
COc1cccc2c(C(=O)NCc3cccc(Cl)c3)cn(CCCN3C4CCC3CC(Oc3ccccc3Cl)C4)c12 (stereo not drawn)	20 nM	3.98 nM					99%
COc1cccc2c(C(C)=O)cn(CCCN3CCN(c4cccc(Cl)c4Cl)CC3)c12	398 nM	7.94 nM	103%				
COc1cccc2c(C(=O)c3ccccc3)cn(CCCN3CCCN(Cc4ccc(F)cc4)CC3)c12	10 nM			3.98 nM	96%		
COc1cccc2c(C(=O)NCc3cccc(C)c3)cn(CCCN3CCC(Oc4ccc(Cl)cc4)CC3)c12				7.94 nM	115%	126 nM	
COc1cccc2c(C(=O)c3ccccc3)cn(CCCN3CCC(Oc4ccc(Cl)cc4)CC3)c12	100 nM			6.31 nM	93%		
CC(=O)c1cn(CCCN2CCCN(Cc3ccccc3Cl)CC2)c2c(Br)cccc12	10 nM	5.01 nM	95%				
COc1cccc2c(C(=O)C3CC3)cn(CCCN3CCC(Oc4cccc(Cl)c4)CC3)c12	20 nM	1.58 nM			102%		
CC(=O)c1cn(CCCN2C3CCC2CC(Oc2ccc(F)cc2)C3)c2c(C#N)cccc12 (stereo not drawn)	100 nM	50.1 nM	93%				
CCCCC1CCN(CCCn2cc(C(C)=O)c3cccc(C)c32)CC1	316 nM	7.94 nM	78%				
COc1cccc2c(C(=O)Cc3ccccc3)cn(CCCN3CCN(Oc4cccc(Cl)c4)CC3)c12	15.8 nM			3.16 nM	88%		
Cc1cccc(CNC(=O)n2cc(CCCN3C4CCC3CC(CCc3ccccc3)C4)c3ccccc32)c1 (stereo not drawn)	158 nM	31.6 nM	114%				
CCc1cccc2c(C(C)=O)cn(CCCNCCOc3ccccc3)c12	12.6 nM	100 nM	106%				
COc1cccc2c(C(=O)NCC(C)C)cn(CCCN3CCCN(CCc4ccccc4)CC3)c12				100 nM	114%	794 nM	

SMILES	Ki [1, 3]	IC50 [2, 4]	Emax [2, 5]	IC50 ([2]; […])	Emax [2]	Ki ([1]; Binding pKi)	RSAT Eff(%) [2, 5]
COc1cccc2c(C(=O)NCc3cccc(C)c3)cn(CCCNCCOc3ccccc3)c12					52%	100 nM	
CC(=O)c1cn(CCCN2CCC(c3nc4ccccc4s3)CC2)c2c(Br)cccc12	200 nM	10 nM	81%				
COc1cccc2c(C(=O)NCc3cccc(C)c3)cn(CCCN3CCN(CCOc4ccc(Cl)cc4)CC3)c12				501 nM	79%	126 nM	
COc1cccc2c(C(C)=O)cn(CC(C)CN3C4CCC3CC(CC(=O)c3ccc(Cl)cc3)C4)c12 (stereo not drawn)	398 nM				16%		
O=C(c1cn(CCCN2C3CCC2CC(Oc2ccccc2Cl)C3)c2ncccc12)C(F)(F)F (stereo not drawn)	251 nM		23%				
COc1cccc2c(C(=O)c3ccccc3)cn(CCCN3C4CCC3CC(CC(=O)c3ccccc3)C4)c12 (stereo not drawn)	100 nM			5.01 nM	101%		
COc1cccc2c(C(=O)NCc3cccc(C)c3)cn(CCCN3C4CCC3CC(CC(=O)c3ccc(Cl)cc3)C4)c12 (stereo not drawn)				10 nM	110%	15.8 nM	
COc1cccc2c(C(=O)NCc3cccc(Cl)c3)cn(CCCN3[C@@H]4CC[C@H]3C[C@@H](CC(=O)c3ccccc3)C4)c12				50.1 nM	111%	63.1 nM	
COc1cccc2c(C(=O)NCc3cccc(C)c3)cn(CCCN3CCC(c4nc5ccccc5s4)CC3)c12				2.51 nM	94%	63.1 nM	
CC(=O)c1cn(CCCN2CCC(Oc3ccccc3Cl)CC2)c2ccccc12 [drawing 599]	2510 nM						116%
CCCCC1CCN(CCCn2cc(C(C)=O)c3ccccc32)CC1 [drawing 584]				631 nM	77%	3980 nM	
COc1cccc2c(C(=O)NCc3cccc(C)c3)cn(CCCN3CCN(CCOc4ccccc4)CC3)c12				20 nM	89%	7.94 nM	
COc1cccc2c(C(=O)NCc3cccc(C)c3)cn(CCCN3C4CCC3CC(CC(=O)c3ccccc3)C4)c12 (stereo not drawn)				1.58 nM	106%	2 nM	
CC(=O)c1cn(CCCN2CCC(C(=O)c3ccccc3)CC2)c2c(C)cccc12	100 nM	3.16 nM	96%				
COc1cccc2c(C(=O)NCc3cccc(C)c3)cn(CCCN3CCC(Oc4ccccc4Cl)CC3)c12				12.6 nM	96%	79.4 nM	
COc1cccc2c(C(C)=O)cn(CCCN3CCN(Oc4ccccc4Cl)CC3)c12	316 nM	20 nM	100%				
COc1cccc2c(C(=O)C3CC3)cn(CCCN3CCC(Oc4ccccc4Cl)CC3)c12				50.1 nM	102%	3160 nM	
O=C(c1cn(CCCN2C3CCC2CC(CCc2ccccc2)C3)c2ncccc12)C(F)(F)F (stereo not drawn)	200 nM	31.6 nM	104%				
CC(=O)c1cn(CCCN2C3CCC2CC(Oc2ccccc2Cl)C3)c2c(C#N)cccc12 (stereo not drawn)	200 nM	20 nM	83%				
